Calls of active or inactive are those of the source. Peptide text beside a SMILES is read from it. * marks the point of attachment. boroAla = C[C@H](N*)B(O)O
Assays:
[1] = tested on: Mycobacterium tuberculosis
[2] = tested on: Mycobacterium thermoresistibile
[3] = tested on: Mycolicibacterium smegmatis

Measured: inhibition

CC(C)[C@H](NC(=O)[C@H](C)N)C(=O)N[C@@H](CCCCN)C(=O)N[C@@H](C)C(=O)N[C@@H](C)B(O)O (H-AVKA-boroAla)
inactive: [1] | [2] | [3]

Reference: ChEMBL document CHEMBL3352621, “Pentapeptide boronic acid inhibitors of Mycobacterium tuberculosis MycP1 protease” (Bioorg Med Chem Lett, 2014)
